Laboratory results as given in patent US9346777B2, “Antiprotozoal compounds” (MediSynergics, LLC, priority 2012, dated 2016).

These molecules were tested on T. brucei brucei (assay: T. brucei brucei growth inhibition assay (bloodstream forms, CellTiter-Glo ATP-bioluminescence)). Details: Trypanosoma brucei; bloodstream forms of T. brucei brucei clone 427-221a; 40 hours at 37° C.; final DMSO 0.5%; 95% confidence intervals in parentheses.
Format: cell-based
Method: The growth inhibition assay for T. brucei brucei was conducted as described previously by Z. B. Mackey et al (Kenny K. H. Ang, Joseline Ratnam, Jiri Gut, Jennifer Legac, Elizabeth Hansell, Zachary B. Mackey, Katarzyna M. Skrzypczynska, Anjan Debnath, Juan C. Engel, Philip J. Rosenthal, James H. McKerrow, Michelle R. Arkin, Adam R. Renslo (2011) “Mining a Cathepsin Inhibitor Library for New Antiparasitic Drug Leads”, PLoS Neglected Tropical Diseases, 5(5):e1023). Bloodstream forms of the monomorphic T. brucei brucei clone 427-221a were grown in complete HMI-9 medium containing 10% FBS, 10% Serum Plus medium (Sigma Inc., St. Louis, Mo., USA), 50 U/mL penicillin and […] (Invitrogen) at 37° C. under a humidified atmosphere and 5% CO2. Inhibitor stocks were prepared in 100% DMSO and screened at […] for percent inhibition values or serially diluted from […] in 10% DMSO for IC50 determinations. […] of diluted parasites ([…]) in sterile Greiner 96-well flat white opaque culture plates such that the final DMSO concentration was 0.5%. The 0% inhibition control wells contained 0.5% DMSO while 100% inhibition control wells contained […] thimerosal (Sigma). After compound addition, plates were incubated for 40 hours at 37° C. At the end of the incubation period, […] of CellTiter-Glo™ reagent (Promega Inc., Madison, Wis., USA) was added to each well and plates were placed on an orbital shaker at room temperature for 2 min to induce lysis. After an additional 10 min of incubation without shaking to stabilize the signal, the ATP-bioluminescence of each well was determined using an Analyst HT plate reader (Molecular Devices, Sunnyvale, Calif., USA). Raw values were converted to log 10 and percentage inhibition calculated relative to the controls. IC50 curve fittings were performed with Prism 4 software as above. Pentamidine was used as a comparator in the assay.

| SMILES | IC50 |
| --- | --- |
| CN(C)CCCC1(c2ccc(F)cc2)OCc2cc(C(=N)N)ccc21 (centres unmarked) [Example 1, 1-[3-(dimethylamino)propyl]-1-(4-fluorophenyl)-1,3-dihydro-2-benzofuran-5-carboximidamide] | 32 µM |
| CN(C)CCCC1(c2ccc(F)cc2)OCc2cc(C(=N)N3CCOCC3)ccc21 (centres unmarked) [Example 5, 1-[1-[3-(dimethylamino)propyl]-1-(4-fluorophenyl)-1,3-dihydro-2-benzofuran-5-yl]-1-(morpholin-4-yl)methan-imine] | 37 µM |
| CN(C)CCCC1(c2ccc(F)cc2)OCc2cc(C(=N)N3CCCC3)ccc21 (centres unmarked) [Example 6, 1-[1-[3-(dimethylamino)propyl]-1-(4-fluorophenyl)-1,3-dihydro-2-benzofuran-5-yl]-1-(pyrrolidin-1-yl)methan-imine] | 24 µM |

Stronger by IC50, values ahead:

| IC50 | SMILES |
| --- | --- |
| 8.8 µM | CN(C)CCCC1(c2ccc(F)cc2)OCc2cc(C(=N)NCc3ccccc3)ccc21 (centres unmarked) [Example 4, N-benzyl-1-[3-(dimethylamino)propyl]-1-(4-fluorophenyl)-1,3-dihydro-2-benzofuran-5-carboximidamide] |
| 1.4 µM | CN(C)CCCC1(c2ccc(F)cc2)OCc2cc(-c3ncc[nH]3)ccc21 (centres unmarked) [Example 7] |
